# Biological target: T1, FLT3 ITD (Homo sapiens, UniProt P36888)
# T1 construct: fused on or other part: DNA tag for qPCR detection (T7 phage fusion or DNA-tagged protein from HEK-293 cells)
# T1 sequence (P36888 1-993): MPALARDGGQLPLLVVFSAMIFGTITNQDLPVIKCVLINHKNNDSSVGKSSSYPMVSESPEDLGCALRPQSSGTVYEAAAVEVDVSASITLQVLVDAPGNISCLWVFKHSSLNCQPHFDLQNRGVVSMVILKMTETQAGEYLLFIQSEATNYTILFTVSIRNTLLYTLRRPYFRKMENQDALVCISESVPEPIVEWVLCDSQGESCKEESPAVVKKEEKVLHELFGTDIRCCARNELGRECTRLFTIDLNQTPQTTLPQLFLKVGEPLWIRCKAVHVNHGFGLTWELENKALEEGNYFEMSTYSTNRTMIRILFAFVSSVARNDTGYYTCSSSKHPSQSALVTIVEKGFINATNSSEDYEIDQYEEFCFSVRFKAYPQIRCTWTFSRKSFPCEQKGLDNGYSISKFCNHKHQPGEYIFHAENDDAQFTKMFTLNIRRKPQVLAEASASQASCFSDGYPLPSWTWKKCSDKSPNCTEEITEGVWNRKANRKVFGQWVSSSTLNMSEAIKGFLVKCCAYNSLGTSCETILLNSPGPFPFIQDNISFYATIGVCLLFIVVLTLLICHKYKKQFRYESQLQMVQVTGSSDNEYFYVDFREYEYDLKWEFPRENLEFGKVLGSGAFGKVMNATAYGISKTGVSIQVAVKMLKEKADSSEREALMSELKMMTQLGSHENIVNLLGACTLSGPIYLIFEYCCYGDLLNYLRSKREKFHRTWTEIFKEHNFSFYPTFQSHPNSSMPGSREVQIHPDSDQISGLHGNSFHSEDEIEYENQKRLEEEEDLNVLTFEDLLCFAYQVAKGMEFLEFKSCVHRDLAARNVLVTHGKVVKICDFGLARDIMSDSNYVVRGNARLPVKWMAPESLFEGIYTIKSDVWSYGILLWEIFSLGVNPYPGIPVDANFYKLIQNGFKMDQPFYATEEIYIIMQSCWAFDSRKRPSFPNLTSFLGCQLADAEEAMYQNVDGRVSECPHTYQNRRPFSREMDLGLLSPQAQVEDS
# Assay: DiscoverX KINOMEscan competition binding, FLT3 ITD
# Excerpt: Kinase binding data were obtained for various exemplary compounds prepared according to Examples 1-24 using the DiscoverX KINOMVIEscan® active site-directed competition binding site-directed assay protocol described below. […] As a result, the data report thermodynamic interaction affinities (Kd values), rather than IC50 values that are dependent on ATP concentrations. The assay uses a DNA-tagged version of the protein kinase, and an immobilized ligand bound to a solid support. Compounds that directly or indirectly prevent kinase binding to the immobilized ligand reduce the amount of kinase captured on the solid support, which is detected using an ultra-sensitive qPCR method. Affinity constants reported from the assay have been reported to be independent of the immobilized ligand used that is coupled to the solid support (See supplemental information in Fabian, M. A. et. al., (2005) Nat. Biotechnol. 23, 329-336; Wodicka, L. M. et. al., (2010) Chem. Biol. 17, 1241-1249.)
# Kinase-tagged T7 phage strains were prepared in an E. coli host derived from the BL21 strain. E. coli were grown to log-phase and infected with T7 phage and incubated with shaking at 32° C. until lysis. The lysates were centrifuged and filtered to remove cell debris. The remaining kinases were produced in HEK-293 cells and subsequently tagged with DNA for qPCR detection. Streptavidin-coated magnetic beads were treated with biotinylated small molecule ligands for 30 minutes at room temperature to generate affinity resins for kinase assays. The liganded beads were blocked with excess biotin and washed with blocking buffer (SeaBlock (Pierce), 1% BSA, 0.05% Tween 20, 1 mM DTT) to remove unbound ligand and to reduce non-specific binding. Binding reactions were assembled by combining kinases, liganded affinity beads, and test compounds in 1× binding buffer (20% SeaBlock, 0.17×PBS, 0.05% Tween 20, 6 mM DTT). Test compounds were prepared as 111× stocks in 100% DMSO. Kds were determined using an 11-point 3-fold compound dilution series with three DMSO control points. All compounds for Kd measurements are distributed by acoustic transfer (non-contact dispensing) in 100% DMSO. The compounds were then diluted directly into the assays such that the final concentration of DMSO was 0.9%. All reactions were performed in polypropylene 384-well plates. Each was a final volume of 0.02 mL. The assay plates were incubated at room temperature with shaking for 1 hour and the affinity beads were washed with wash buffer (1×PBS, 0.05% Tween 20). The beads were then re-suspended in elution buffer (1×PBS, 0.05% Tween 20, 0.5 μM nonbiotinylated affinity ligand) and incubated at room temperature with shaking for 30 minutes. The kinase concentration in the eluates was measured by qPCR.
# Binding constants (Kds) were calculated with a standard dose-response curve using the Hill equation. The Hill Slope was set to −1. Curves were fitted using a non-linear least square fit with the Levenberg-Marquardt algorithm.
row,SMILES,Kd [nM]
1,"CC1(c2cn3c(-c4cccc(N[C@H]5CNC[C@@H]5F)n4)cnc3cn2)CC1 [Compound 1, N-((3S,4S)-4-fluoropyrrolidin-3-yl)-6-(6-(1-methylcyclopropyl)imidazo[1,2-a]pyrazin-3-yl)pyridin-2-amine]",0.087
2,"CC1(c2cn3c(-c4cccc(N[C@@H]5CCNC5)n4)cnc3cn2)CC1 [Compound 3, (R)-6-(6-(1-methylcyclopropyl)imidazo[1,2-a]pyrazin-3-yl)-N-(pyrrolidin-3-yl)pyridin-2-amine]",0.14
3,"CC1(c2cn3c(-c4cccc(N[C@H]5CNCC56CC6)n4)cnc3cn2)CC1 [Compound 5, (R)-N-(6-(6-(1-methylcyclopropyl)imidazo[1,2-a]pyrazin-3-yl)pyridin-2-yl)-5-azaspiro[2.4]heptan-7-amine]",0.11
4,"FC(F)(F)C1(c2cn3c(-c4cccc(N[C@@H]5CCNC5)n4)cnc3cn2)CC1 [Compound 10, (R)-N-(pyrrolidin-3-yl)-6-(6-(1-(trifluoromethyl)cyclopropyl)imidazo[1,2-a]pyrazin-3-yl)pyridin-2-amine]",1.4
5,"FC(F)c1cn2c(-c3cccc(N[C@H]4CNC[C@@H]4F)n3)cnc2cn1 [Compound 16, 6-(6-(difluoromethyl)imidazo[1,2-a]pyrazin-3-yl)-N-((3S,4S)-4-fluoropyrrolidin-3-yl)pyridin-2-amine]",0.14
6,"FC(F)c1cn2c(-c3cccc(N[C@H]4CNCC[C@@H]4F)n3)cnc2cn1 [Compound 25, 6-(6-(difluoromethyl)imidazo[1,2-a]pyrazin-3-yl)-N-((3S,4S)-4-fluoropiperidin-3-yl)pyridin-2-amine]",0.34
7,"CC(C)(O)c1cn2c(-c3cccc(N[C@@H]4CCCNC4)n3)cnc2cn1 [Compound 30, (R)-2-(3-(6-(piperidin-3-ylamino)pyridin-2-yl)imidazo[1,2-a]pyrazin-6-yl)propan-2-ol]",2.9
8,"CC(C)(O)c1cn2c(-c3cccc(N[C@H]4CNCC[C@@H]4F)n3)cnc2cn1 [Compound 31, 2-(3-(6-(((3S,4S)-4-fluoropiperidin-3-yl)amino)pyridin-2-yl)imidazo[1,2-a]pyrazin-6-yl)propan-2-ol]",1.5
9,"FC(F)(F)COc1cn2c(-c3cccc(N[C@@H]4CCNC4)n3)cnc2cn1 [Compound 38, (R)-N-(pyrrolidin-3-yl)-6-(6-(2,2,2-trifluoroethoxy)imidazo[1,2-a]pyrazin-3-yl)pyridin-2-amine]",2.3
10,"F[C@H]1CNC[C@@H]1Nc1cccc(-c2cnc3cnc(C4CC4)cn23)n1 [Compound 50, 6-(6-cyclopropylimidazo[1,2-a]pyrazin-3-yl)-N-((3S,4S)-4-fluoropyrrolidin-3-yl)pyridin-2-amine]",0.091
11,"Cn1cc(-c2cn3c(-c4cccc(N[C@H]5CNC[C@@H]5F)n4)cnc3cn2)cn1 [Compound 52, N-((3S,4S)-4-fluoropyrrolidin-3-yl)-6-(6-(1-methyl-1H-pyrazol-4-yl)imidazo[1,2-a]pyrazin-3-yl)pyridin-2-amine]",0.13

# — patent publication US12612410B2 (CHILDREN'S HOSPITAL MEDICAL CENTER, priority 2020, dated 2026)
